Reference: ChEMBL document CHEMBL1201862, “PubChem BioAssay data set” (2004)
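Cultured in 96-well plates, cells were exposed to test compound for 48 hours across five concentrations. GI50 = concentration required for 50% inhibition of growth.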 Calls of active or inactive are those of the source. No stated cut-off is given here; in the data, active = GI50 up to about 1.1 µM and inactive = higher.

Assays:
Test in all cases: DTP human tumour cell line panel, 48 h
HT-29 = test system: HT-29
NCI-H226 = test system: NCI-H226
HCT-116 = test system: HCT-116
A549 = test system: A549
M19-MEL = test system: M19-MEL
NCI-H23 = test system: NCI-H23
SF-268 = test system: SF-268
OVCAR-3 = test system: OVCAR-3
A498 = test system: A498
UACC-257 = test system: UACC-257
M14 = test system: M14
DMS-273 = test system: DMS-273
HOP-62 = test system: HOP-62
SF-539 = test system: SF-539
HCT-15 = test system: HCT-15
RPMI-8226 = test system: RPMI-8226
U-251 = test system: U-251
CAKI-1 = test system: CAKI-1
MOLT-4 = test system: MOLT-4
HCC 2998 = test system: HCC 2998
LOX IMVI = test system: LOX IMVI
SNB-78 = test system: SNB-78
ACHN = test system: ACHN
SNB-19 = test system: SNB-19
DLD-1 = test system: DLD-1
COLO 205 = test system: COLO 205
EKVX = test system: EKVX
SN12C = test system: SN12C
UACC-62 = test system: UACC-62
OVCAR-4 = test system: OVCAR-4
HOP-18 = test system: HOP-18
RXF 393 = test system: RXF 393
UO-31 = test system: UO-31
NCI-H460 = test system: NCI-H460
NCI-H522 = test system: NCI-H522
RXF 631 = test system: RXF 631
SK-MEL-2 = test system: SK-MEL-2
K562 = test system: K562
SF-295 = test system: SF-295
Malme-3M = test system: Malme-3M
TK-10 = test system: TK-10
DMS-114 = test system: DMS-114
SK-MEL-28 = test system: SK-MEL-28
SK-MEL-5 = test system: SK-MEL-5
SNB-75 = test system: SNB-75
786-0 = test system: 786-0
OVCAR-5 = test system: OVCAR-5
KM-20L2 = test system: KM-20L2
KM12 = test system: KM12
SW-620 = test system: SW-620
IGROV-1 = test system: IGROV-1
OVCAR-8 = test system: OVCAR-8
LXFL 529 = test system: LXFL 529
HOP-92 = test system: HOP-92
XF498 = test system: XF498
SK-OV-3 = test system: SK-OV-3

Question: `CCOC(=O)[C@H]1Nc2ccc(O)cc2C2c3ccccc3CC21` (stereo partly specified) was tested. Which GI50 (HT-29) did it give?
Answer: Its GI50 is > 100 µM (inactive).

Question: What about the GI50 (NCI-H226) of the same compound?
Answer: The GI50 was > 100 µM (inactive).

Question: What about the GI50 (HCT-116) of the same compound?
Answer: The GI50 was 68.1 µM (inactive).

Question: And the GI50 (A549)?
Answer: The GI50 was 65.3 µM (inactive).

Question: What about the GI50 (M19-MEL) of the same compound?
Answer: Its GI50 is 55.1 µM (inactive).

Question: What about the GI50 (NCI-H23) of the same compound?
Answer: Its GI50 is 53.7 µM (inactive).

Question: What about the GI50 (SF-268) of the same compound?
Answer: The GI50 was > 100 µM (inactive).

Question: What about the GI50 (OVCAR-3) of the same compound?
Answer: The GI50 was 35.2 µM (inactive).

Question: What about the GI50 (A498) of the same compound?
Answer: The GI50 was > 100 µM (inactive).

Question: And the GI50 (UACC-257)?
Answer: The GI50 was 37.7 µM (inactive).

Question: What about the GI50 (M14) of the same compound?
Answer: Its GI50 is 59.7 µM (inactive).

Question: And the GI50 (DMS-273)?
Answer: Its GI50 is 59.2 µM (inactive).

Question: And the GI50 (HOP-62)?
Answer: Its GI50 is > 100 µM (inactive).

Question: What about the GI50 (SF-539) of the same compound?
Answer: The GI50 was > 100 µM (inactive).

Question: What about the GI50 (HCT-15) of the same compound?
Answer: The GI50 was 72.8 µM.

Question: What about the GI50 (RPMI-8226) of the same compound?
Answer: Its GI50 is 43.2 µM (inactive).

Question: What about the GI50 (U-251) of the same compound?
Answer: Its GI50 is 88.7 µM (inactive).

Question: And the GI50 (CAKI-1)?
Answer: The GI50 was > 100 µM (inactive).

Question: And the GI50 (MOLT-4)?
Answer: The GI50 was 33 µM (inactive).

Question: And the GI50 (HCC 2998)?
Answer: The GI50 was 49 µM (inactive).

Question: And the GI50 (LOX IMVI)?
Answer: The GI50 was 81.3 µM (inactive).

Question: What about the GI50 (SNB-78) of the same compound?
Answer: The GI50 was > 100 µM (inactive).

Question: And the GI50 (ACHN)?
Answer: Its GI50 is 51.4 µM (inactive).

Question: What about the GI50 (SNB-19) of the same compound?
Answer: Its GI50 is > 100 µM (inactive).

Question: And the GI50 (DLD-1)?
Answer: Its GI50 is 70.8 µM (inactive).

Question: And the GI50 (COLO 205)?
Answer: The GI50 was > 100 µM (inactive).

Question: What about the GI50 (EKVX) of the same compound?
Answer: The GI50 was 42.3 µM (inactive).

Question: What about the GI50 (SN12C) of the same compound?
Answer: Its GI50 is 87.1 µM (inactive).

Question: What about the GI50 (UACC-62) of the same compound?
Answer: The GI50 was 51.3 µM (inactive).

Question: And the GI50 (OVCAR-4)?
Answer: The GI50 was 42.1 µM (inactive).

Question: What about the GI50 (HOP-18) of the same compound?
Answer: The GI50 was > 100 µM (inactive).

Question: What about the GI50 (RXF 393) of the same compound?
Answer: Its GI50 is 17.7 µM (inactive).

Question: And the GI50 (UO-31)?
Answer: Its GI50 is 98.2 µM (inactive).

Question: And the GI50 (NCI-H460)?
Answer: Its GI50 is > 100 µM (inactive).

Question: And the GI50 (NCI-H522)?
Answer: Its GI50 is 61.7 µM (inactive).

Question: What about the GI50 (RXF 631) of the same compound?
Answer: The GI50 was > 100 µM (inactive).

Question: And the GI50 (SK-MEL-2)?
Answer: Its GI50 is > 100 µM (inactive).

Question: And the GI50 (K562)?
Answer: Its GI50 is 52.5 µM (inactive).

Question: What about the GI50 (SF-295) of the same compound?
Answer: Its GI50 is > 10 µM (inactive).

Question: And the GI50 (Malme-3M)?
Answer: Its GI50 is > 100 µM (inactive).

Question: What about the GI50 (TK-10) of the same compound?
Answer: Its GI50 is > 100 µM (inactive).

Question: And the GI50 (DMS-114)?
Answer: Its GI50 is 56.2 µM (inactive).

Question: What about the GI50 (SK-MEL-28) of the same compound?
Answer: The GI50 was 34.8 µM (inactive).

Question: And the GI50 (SK-MEL-5)?
Answer: Its GI50 is 33.3 µM (inactive).

Question: What about the GI50 (SNB-75) of the same compound?
Answer: Its GI50 is 36.9 µM (inactive).

Question: What about the GI50 (786-0) of the same compound?
Answer: Its GI50 is 77.8 µM (inactive).

Question: And the GI50 (OVCAR-5)?
Answer: Its GI50 is > 100 µM (inactive).

Question: And the GI50 (KM-20L2)?
Answer: Its GI50 is > 100 µM (inactive).

Question: What about the GI50 (KM12) of the same compound?
Answer: Its GI50 is > 100 µM (inactive).

Question: And the GI50 (SW-620)?
Answer: The GI50 was > 100 µM (inactive).

Question: And the GI50 (IGROV-1)?
Answer: Its GI50 is > 100 µM (inactive).

Question: And the GI50 (OVCAR-8)?
Answer: The GI50 was > 100 µM (inactive).

Question: And the GI50 (LXFL 529)?
Answer: The GI50 was 42.6 µM (inactive).

Question: For `CCc1nc2ccccc2c(=O)n1/N=C(\N=N\c1ccc(Cl)cc1)c1ccccc1Cl`, which GI50 (HT-29) is on record?
Answer: The GI50 was 50.9 µM (inactive).

Question: What about the GI50 (HCT-116) of the same compound?
Answer: The GI50 was 26.8 µM (inactive).

Question: What about the GI50 (M19-MEL) of the same compound?
Answer: The GI50 was > 100 µM (inactive).

Question: What about the GI50 (NCI-H23) of the same compound?
Answer: Its GI50 is 82.8 µM (inactive).

Question: And the GI50 (SF-268)?
Answer: Its GI50 is 28 µM (inactive).

Question: And the GI50 (A498)?
Answer: The GI50 was 51.9 µM (inactive).

Question: And the GI50 (M14)?
Answer: The GI50 was 68.5 µM (inactive).

Question: And the GI50 (DMS-273)?
Answer: The GI50 was 38.7 µM (inactive).

Question: And the GI50 (HOP-62)?
Answer: Its GI50 is 39.3 µM (inactive).

Question: What about the GI50 (SF-539) of the same compound?
Answer: The GI50 was 47.4 µM (inactive).

Question: And the GI50 (HCT-15)?
Answer: Its GI50 is 68.2 µM.

Question: And the GI50 (U-251)?
Answer: Its GI50 is 49.7 µM (inactive).

Question: What about the GI50 (CAKI-1) of the same compound?
Answer: Its GI50 is 65.5 µM (inactive).

Question: And the GI50 (MOLT-4)?
Answer: Its GI50 is 26.1 µM (inactive).

Question: What about the GI50 (HOP-92) of the same compound?
Answer: Its GI50 is 20.2 µM (inactive).

Question: And the GI50 (LOX IMVI)?
Answer: The GI50 was 53.2 µM (inactive).

Question: And the GI50 (ACHN)?
Answer: The GI50 was 43.2 µM (inactive).

Question: And the GI50 (COLO 205)?
Answer: The GI50 was 52.6 µM (inactive).

Question: What about the GI50 (EKVX) of the same compound?
Answer: The GI50 was 2.11 µM (inactive).

Question: And the GI50 (SN12C)?
Answer: Its GI50 is 57.3 µM (inactive).

Question: What about the GI50 (UACC-62) of the same compound?
Answer: The GI50 was > 100 µM (inactive).

Question: What about the GI50 (HOP-18) of the same compound?
Answer: The GI50 was 20 µM (inactive).

Question: What about the GI50 (RXF 393) of the same compound?
Answer: Its GI50 is 21.1 µM (inactive).

Question: What about the GI50 (UO-31) of the same compound?
Answer: Its GI50 is 18.2 µM (inactive).

Question: And the GI50 (NCI-H460)?
Answer: Its GI50 is 50.4 µM (inactive).

Question: And the GI50 (NCI-H522)?
Answer: The GI50 was > 10 µM (inactive).

Question: And the GI50 (RXF 631)?
Answer: Its GI50 is > 100 µM (inactive).

Question: And the GI50 (XF498)?
Answer: The GI50 was 18.5 µM (inactive).

Question: What about the GI50 (SF-295) of the same compound?
Answer: The GI50 was 54.7 µM (inactive).

Question: And the GI50 (SK-OV-3)?
Answer: The GI50 was 60.7 µM (inactive).

Question: And the GI50 (TK-10)?
Answer: Its GI50 is 82.8 µM (inactive).

Question: And the GI50 (DMS-114)?
Answer: Its GI50 is 20.1 µM (inactive).

Question: And the GI50 (SK-MEL-28)?
Answer: Its GI50 is 23.5 µM (inactive).

Question: What about the GI50 (786-0) of the same compound?
Answer: Its GI50 is 67.8 µM (inactive).

Question: And the GI50 (KM-20L2)?
Answer: Its GI50 is 48.3 µM (inactive).

Question: What about the GI50 (IGROV-1) of the same compound?
Answer: The GI50 was > 100 µM (inactive).

Question: And the GI50 (OVCAR-8)?
Answer: Its GI50 is 39.5 µM (inactive).

Question: What about the GI50 (LXFL 529) of the same compound?
Answer: Its GI50 is 23.4 µM (inactive).
